Data taken from patent US11103603B2, “18F-labeled compounds for PET imaging and uses thereof” (The University of North Carolina at Chapel Hill, priority 2016, dated 2021).

Experiments:
IDO1 enzyme = IDO1 enzyme (Homo sapiens, UniProt P14902); assay: IDO1 enzyme assay (substrate test, absorbance at 490 nm); assay type: biochemical; conditions: for substrate to IDO1 enzyme: FIG. 7A; for absorbance at 490 nm: reaction containing the compound, results from 3 independent assays, control reaction had no absorbance
IDO1 enzyme, sequence (P14902 whole entry, species assumed): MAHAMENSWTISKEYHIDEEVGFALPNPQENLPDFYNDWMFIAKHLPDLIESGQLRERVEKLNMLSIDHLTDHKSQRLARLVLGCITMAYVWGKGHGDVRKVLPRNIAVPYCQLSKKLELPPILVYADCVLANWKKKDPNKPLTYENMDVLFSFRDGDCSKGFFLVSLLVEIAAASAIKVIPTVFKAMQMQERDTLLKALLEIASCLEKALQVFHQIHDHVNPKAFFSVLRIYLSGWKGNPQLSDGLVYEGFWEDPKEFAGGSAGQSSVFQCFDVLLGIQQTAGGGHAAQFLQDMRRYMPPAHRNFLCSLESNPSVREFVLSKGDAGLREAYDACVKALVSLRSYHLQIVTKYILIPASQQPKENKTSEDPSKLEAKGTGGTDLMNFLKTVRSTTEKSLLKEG
Protocol: (§1) (D) Decay-corrected whole-body small PET images of B16F10 melanoma after 30 min injection of 5-[^18]F-AMT.
(§2) Among the agents synthesized, 5-[^18F]F-AMT was first evaluated in vitro. In order to ensure that 5-[^18F]F-AMT could be used for IDO imaging, cell- and enzyme-based assays were performed. It was first tested whether 5-[^18F]F-AMT is a substrate for the IDO enzyme, and the result compared with that of the natural substrate Trp and a known IDO agent, α-methyl-L-tryptophan (AMT). […] Therefore, a cell-based assay was performed to further evaluate the agents. The uptake of 5-[^18F]F-AMT in IFNγ-treated cells was 3.474±0.6451% compared with 0.50±0.28% in control cells after 1 h incubation (p<0.001) (FIG. 7C). […] The serotonin pathway is a competitive metabolic route for Trp and its derivatives. In the first step Tph adds a hydroxyl group to position 5 of the indole ring. It was evaluated whether the introduction of fluorine at the 5-position would affect metabolism by Tph. As shown in) (FIG. 7B), immediately after adding L-Trp to the reaction system containing the tryptophan hydroxylase enzyme, the fluorescence signal increased from a baseline value of −0.266 to 40.885 and reached a peak value 58.350 at 26 min. Immediately after adding AMT to the reaction system, the fluorescence signal increased from a baseline value of −0.312 to 21.145 and reached a peak value of 36.607 at 34 min.

[1] = test system: tryptophan hydroxylase enzyme; assay: Protein based tryptophan hydroxylase (Tph) assay, fluorescence signal; assay type: biochemical; conditions: for substrate quality for Tph: compared with Trp and AMT; for fluorescence signal immediately after adding compound: immediately after adding to reaction system containing tryptophan hydroxylase; for fluorescence signal peak value: peak of time course
Protocol: as §2

HeLa cells = assay: Cell uptake of tracer in HeLa cells with or without IFNγ treatment and NLG919; assay type: cell-based
Protocol: as §1, §2

B16F10 melanoma = assay: Small animal PET imaging of B16F10 melanoma tumor xenograft mouse model; assay type: in vivo; conditions: 200 μCi injected, image at 30 min
Protocol: as §1
FIGS. 8A-8B show (A) decay-corrected whole-body small PET images of B16F10 melanoma 0.5 h, 1.4 h, and 20 h after injection of ^124I-AMT; (B) decay-corrected whole-body small PET images of B16F10 melanoma 50 min after injection of ^18F—N-Me-Trp.
A tumor xenograft mouse model was produced with a B16F10 melanoma. 200 μCi of 5-^18F-AMT was injected and a PET image was obtained at 30 min. (FIG. 7D).
To test the effectiveness of therapeutic compounds of the invention, a tumor […] xenograft mouse model was produced with a B16F10 melanoma. 1 (FIG. 8A) or ^18F—N-Me-Trp (FIG. 8B) were injected in the tail vein and PET images obtained.

Question: How did the “substrate to IDO1 enzyme” value (IDO1 enzyme) turn out when `CC(N)(Cc1c[nH]c2ccc(F)cc12)C(=O)O` (stereo not shown) [5-F-AMT] was run?
Answer: Its value is “substrates”.

Question: What about the “absorbance at 490 nm” value (IDO1 enzyme) of the same molecule?
Answer: Its value is 0.16±0.03.

Question: And the “time at which peak fluorescence was reached” value [1]?
Answer: Its value is 25 min.

Question: And the “substrate quality for Tph” value [1]?
Answer: Its value is “not a good substrate”.

Question: What about the “fluorescence signal immediately after adding compound” value [1] of the same molecule?
Answer: Its value is 5.635.

Question: And the “fluorescence signal peak value” [1]?
Answer: The value was 8.176.

Question: With `CC(N)(Cc1c[nH]c2ccc([18F])cc12)C(=O)O` (stereo not shown) [5-[^18F]F-AMT] as the molecule, how does the “increase of HeLa cells uptake after IFN-γ treatment” value (HeLa cells; HeLa cells, IFN-γ treated vs untreated) read?
Answer: Its value is 7 times.

Question: What about the “uptake in IFNγ-treated cells incubated with NLG919” value (HeLa cells; IFNγ-treated cells + IDO1 inhibitor NLG919) of the same molecule?
Answer: The value was 0.88±0.12%.

Question: What about the “uptake in IFNγ-treated cells” value (HeLa cells; IFNγ-treated cells, 1 h incubation) of the same molecule?
Answer: Its value is 3.474±0.6451%.

Question: And the “uptake in control cells” value (HeLa cells; control cells (no IFNγ), 1 h incubation)?
Answer: The value was 0.50±0.28%.

Question: And the “PET image of tumor” value (B16F10 melanoma)?
Answer: Its value is “clearly shows the tumor”.

Question: And the “substrate quality for Tph” value [1]?
Answer: Its value is “worse substrate”.

Question: What does the source list for `C[C@](N)(Cc1c[nH]c2ccccc12)C(=O)O` [AMT, α-methyl-L-tryptophan]?
Answer: substrate to IDO1 enzyme (IDO1 enzyme): substrates; absorbance at 490 nm (IDO1 enzyme): 0.19±0.02; time at which peak fluorescence was reached [1]: 34 min; fluorescence signal immediately after adding compound [1]: 21.145; fluorescence signal peak value [1]: 36.607

Question: `N[C@@H](Cc1c[nH]c2ccccc12)C(=O)O` [L-Trp, L-tryptophan] was tested. Which “substrate to IDO1 enzyme” value (IDO1 enzyme) did it give?
Answer: The value was “substrates”.

Question: And the “absorbance at 490 nm” value (IDO1 enzyme)?
Answer: The value was 0.21±0.01.

Question: What about the “time at which peak fluorescence was reached” value [1] of the same molecule?
Answer: Its value is 26 min.

Question: What about the “fluorescence signal immediately after adding compound” value [1] of the same molecule?
Answer: Its value is 40.885.

Question: And the “fluorescence signal peak value” [1]?
Answer: The value was 58.350.
